Reference: US20250059159A1, “PLPRO INHIBITORS” (SHANGHAI SYNERGY PHARMACEUTICAL SCIENCES CO., LTD., priority 2021, published 2025)

What was measured:
SARS-CoV-2 PLpro = SARS-CoV-2 PLpro (Severe acute respiratory syndrome coronavirus 2 (2019-nCoV) (SARS-CoV-2), UniProt P0DTD1); test: PLpro enzymatic inhibition assay (IC50 value determination); format: biochemical; conditions: 60 min preincubation for covalent inhibitors, 10 min for non-covalent, read-out: Inhibition of SARS-CoV-2 PLpro IC50 range
SARS-CoV2 (Omicron) = test: SARS-CoV2 antiviral cellular activity assay in A549:hACE2 cells; format: cell-based; conditions: Severe acute respiratory syndrome coronavirus 2, 48 h; read-out: Antiviral cellular EC50 range (Omicron)

Question: How did the IC50 (SARS-CoV-2 PLpro) turn out when `C#CCNC(=O)CNC(=O)CN(C1CCN([C@H](C)c2cccc3ccccc23)CC1)S(=O)(=O)C1CC1` [Compound 60, (R)-2-(N-(1-(1-(naphthalen-1-yl)ethyl)piperidin-4-yl)cyclopropanesulfonamido)-N-(2-oxo-2-(prop-2-yn-1-ylamino)ethyl)acetamide] was run?
Answer: < 100 nM

Question: What about the EC50 (SARS-CoV2 (Omicron)) of the same molecule?
Answer: < 100 nM

Question: For `C#CCNC(=O)CNC(=O)CN(C1CCN(C(C)c2ccc(F)c3ccccc23)CC1)S(C)(=O)=O` (centres unmarked) [Compound 107], which IC50 (SARS-CoV-2 PLpro) is on record?
Answer: < 100 nM

Question: And the EC50 (SARS-CoV2 (Omicron))?
Answer: 100 to 1000 nM

Question: For `C#CCNC(=O)CNC(=O)CN(CCC(C)=O)C1CCN([C@H](C)c2cccc3ccccc23)CC1` [Compound 79, (R)-2-((1-(1-(naphthalen-1-yl)ethyl)piperidin-4-yl)(3-oxobutyl)amino)-N-(2-oxo-2-(prop-2-yn-1-ylamino)ethyl)acetamide], which IC50 (SARS-CoV-2 PLpro) is on record?
Answer: < 100 nM

Question: What about the EC50 (SARS-CoV2 (Omicron)) of the same molecule?
Answer: 100 to 1000 nM

Question: For `C#CCNC(=O)CNC(=O)CN(C1CCN([C@H](C)c2cccc3ccccc23)CC1)S(=O)(=O)c1ccccc1` [Compound 63, (R)-2-(N-(1-(1-(naphthalen-1-yl)ethyl)piperidin-4-yl)phenylsulfonamido)-N-(2-oxo-2-(prop-2-yn-1-ylamino)ethyl)acetamide], which IC50 (SARS-CoV-2 PLpro) is on record?
Answer: < 100 nM

Question: And the EC50 (SARS-CoV2 (Omicron))?
Answer: < 100 nM

Question: How did the IC50 (SARS-CoV-2 PLpro) turn out when `C#CCNC(=O)CNC(=O)CN(C1CCN([C@H](C)c2cccc3ccccc23)CC1)S(=O)(=O)N1CCCC1` [Compound 65, (R)-2-(N-(1-(1-(naphthalen-1-yl)ethyl)piperidin-4-yl)pyrrolidine-1-sulfonamido)-N-(2-oxo-2-(prop-2-yn-1-ylamino)ethyl)acetamide] was run?
Answer: < 100 nM

Question: What about the EC50 (SARS-CoV2 (Omicron)) of the same molecule?
Answer: < 100 nM

Question: For `COC(=O)/C=C/CNC(=O)CNC(=O)CN(C1CCN([C@H](C)c2cccc3ccccc23)CC1)S(N)(=O)=O` [Compound 22, methyl (R,E)-4-(2-(2-((1-(1-(naphthalen-1-yl)ethyl)piperidin-4-yl)(sulfamoyl)amino)acetamido)acetamido)but-2-enoate], which IC50 (SARS-CoV-2 PLpro) is on record?
Answer: < 100 nM

Question: How did the IC50 (SARS-CoV-2 PLpro) turn out when `COC(=O)/C=C/CNC(=O)CNC(=O)CN(C(=O)CC(C)C)C1CCN([C@H](C)c2cccc3ccccc23)CC1` [Compound 19, methyl (R,E)-4-(2-(2-(3-methyl-N-(1-(1-(naphthalen-1-yl)ethyl)piperidin-4-yl)butanamido)acetamido)acetamido)but-2-enoate] was run?
Answer: < 100 nM

Question: How did the IC50 (SARS-CoV-2 PLpro) turn out when `COC(=O)/C=C/CNC(=O)CNC(=O)CN(C(C)=O)C1CCN(C(C)c2cccc3ccccc23)CC1` (centres unmarked) [Compound 13, methyl (E)-4-(2-(2-(N-(1-(1-(naphthalen-1-yl)ethyl)piperidin-4-yl)acetamido)acetamido)acetamido)but-2-enoate] was run?
Answer: < 100 nM

Question: `C#CCNC(=O)CNC(=O)CN(C1CCN(C(C)c2cccc(C)c2Cl)CC1)S(C)(=O)=O` (centres unmarked) [Compound 142, 2-(N-(1-(1-(2-chloro-3-methylphenyl)ethyl)piperidin-4-yl)methylsulfonamido)-N-(2-oxo-2-(prop-2-yn-1-ylamino)ethyl)acetamide] was tested. Which IC50 (SARS-CoV-2 PLpro) did it give?
Answer: 100 to 1000 nM

Question: How did the IC50 (SARS-CoV-2 PLpro) turn out when `C#CCNC(=O)CNC(=O)CN(C1CCN(C(C)c2ccccc2OC)CC1)S(C)(=O)=O` (centres unmarked) [Compound 130, 2-(N-(1-(1-(2-methoxyphenyl)ethyl)piperidin-4-yl)methylsulfonamido)-N-(2-oxo-2-(prop-2-yn-1-ylamino)ethyl)acetamide] was run?
Answer: < 100 nM

Question: With `C#CCNC(=O)CNC(=O)CN(C1CCN(C(C)c2ccc(OC)c(Cl)c2)CC1)S(C)(=O)=O` (centres unmarked) [Compound 121, 2-(N-(1-(1-(3-chloro-4-methoxyphenyl)ethyl)piperidin-4-yl)methylsulfonamido)-N-(2-oxo-2-(prop-2-yn-1-ylamino)ethyl)acetamide] as the molecule, how does the IC50 (SARS-CoV-2 PLpro) read?
Answer: < 100 nM

Question: For `COC(=O)/C=C/CNC(=O)CNC(=O)C[C@H](NCc1ccc2c(c1)OCO2)C1CCN(C(C)c2cccc3ccccc23)CC1` (stereo partly drawn) [Compound 29, methyl (E)-4-(2-((3S)-3-((benzo[d][1,3]dioxol-5-ylmethyl)amino)-3-(1-(1-(naphthalen-1-yl)ethyl)piperidin-4-yl)propanamido)acetamido)but-2-enoate], which IC50 (SARS-CoV-2 PLpro) is on record?
Answer: 100 to 1000 nM

Question: `C#CCNC(=O)CNC(=O)CN(C1CCN([C@H](C)c2cccc3ccccc23)CC1)S(=O)(=O)CCCO` [Compound 135, (R)-2-((3-hydroxy-N-(1-(1-(naphthalen-1-yl)ethyl)piperidin-4-yl)propyl)sulfonamido)-N-(2-oxo-2-(prop-2-yn-1-ylamino)ethyl)acetamide] was tested. Which IC50 (SARS-CoV-2 PLpro) did it give?
Answer: < 100 nM

Question: How did the IC50 (SARS-CoV-2 PLpro) turn out when `[2H]C([2H])(C#C)NC(=O)CNC(=O)CN(C1CCN(C(C)c2cccc3ccccc23)CC1)S(C)(=O)=O` (stereo not drawn) [Compound 153, 2-(N-(1-(1-(naphthalen-1-yl)ethyl)piperidin-4-yl)methylsulfonamido)-N-(2-oxo-2-((prop-2-yn-1-yl-1,l-d2)amino)ethyl)acetamide] was run?
Answer: < 100 nM

Question: With `COC(=O)/C=C/CNC(=O)CNC(=O)CN(C(=O)C(F)(F)F)C1CCN([C@H](C)c2cccc3ccccc23)CC1` [Compound 14, methyl (R,E)-4-(2-(2-(2,2,2-trifluoro-N-(1-(1-(naphthalen-1-yl)ethyl)piperidin-4-yl)acetamido)acetamido)acetamido)but-2-enoate] as the molecule, how does the IC50 (SARS-CoV-2 PLpro) read?
Answer: 100 to 1000 nM

Question: `C#CCNC(=O)CNC(=O)CN(C(=O)CCC(=O)O)C1CCN(C(C)c2cccc3ccccc23)CC1` (centres unmarked) [Compound 118, 4-((1-(1-(naphthalen-1-yl)ethyl)piperidin-4-yl)(2-oxo-2-((2-oxo-2-(prop-2-yn-1-ylamino)ethyl)amino)ethyl)amino)-4-oxobutanoic acid] was tested. Which IC50 (SARS-CoV-2 PLpro) did it give?
Answer: 1000 to 10000 nM

Question: With `CC(c1cccc2ccccc12)N1CCC(N(CC(=O)NCC(=O)NC/C=C/C(N)=O)C(=O)C2CCC2)CC1` (centres unmarked) [Compound 8, (E)-N-(2-((2-((4-amino-4-oxobut-2-en-1-yl)amino)-2-oxoethyl)amino)-2-oxoethyl)-N-(1-(1-(naphthalen-1-yl)ethyl)piperidin-4-yl)cyclobutanecarboxamide] as the molecule, how does the IC50 (SARS-CoV-2 PLpro) read?
Answer: 100 to 1000 nM

Question: How did the IC50 (SARS-CoV-2 PLpro) turn out when `COC(=O)/C=C/CNC(=O)CNC(=O)CN(C(=O)C1CC1)C1CCN([C@H](C)c2cccc3ccccc23)CC1` [Compound 5, methyl (R,E)-4-(2-(2-(N-(1-(1-(naphthalen-1-yl)ethyl)piperidin-4-yl)cyclopropanecarboxamido)acetamido)acetamido)but-2-enoate] was run?
Answer: < 100 nM

Question: Which IC50 (SARS-CoV-2 PLpro) does the source give for `C#CCNC(=O)CNC(=O)CN(C1CCN(C(C)c2cccc(Br)c2)CC1)S(C)(=O)=O` (centres unmarked) [Compound 108, 2-(N-(1-(1-(3-bromophenyl)ethyl)piperidin-4-yl)methylsulfonamido)-N-(2-oxo-2-(prop-2-yn-1-ylamino)ethyl)acetamide] here?
Answer: 100 to 1000 nM

Question: For `C#CCNC(=O)CNC(=O)CN(C1CCN(C(C)c2c(F)ccc3ccccc23)CC1)S(C)(=O)=O` (centres unmarked) [Compound 83, 2-(N-(1-(1-(2-fluoronaphthalen-1-yl)ethyl)piperidin-4-yl)methylsulfonamido)-N-(2-oxo-2-(prop-2-yn-1-ylamino)ethyl)acetamide], which IC50 (SARS-CoV-2 PLpro) is on record?
Answer: 100 to 1000 nM

Question: For `COC(=O)/C=C/CNC(=O)CNC(=O)CN(C)C1CCN([C@H](C)c2cccc3ccccc23)CC1` [Compound 25, methyl (R,E)-4-(2-(2-(methyl(1-(1-(naphthalen-1-yl)ethyl)piperidin-4-yl)amino)acetamido)acetamido)but-2-enoate], which IC50 (SARS-CoV-2 PLpro) is on record?
Answer: < 100 nM

Question: For `C#CC(C)NC(=O)CNC(=O)CN(C1CCN([C@H](C)c2cccc3ccccc23)CC1)S(C)(=O)=O` (stereo partly drawn) [Compound 128, N-(but-3-yn-2-yl)-2-(2-(N-(1-((R)-1-(naphthalen-1-yl)ethyl)piperidin-4-yl)methylsulfonamido)acetamido)acetamide], which IC50 (SARS-CoV-2 PLpro) is on record?
Answer: 1000 to 10000 nM

Question: How did the IC50 (SARS-CoV-2 PLpro) turn out when `COC(=O)/C=C/CNC(=O)CNC(=O)CN(C(=O)C(C)C)C1CCN([C@H](C)c2cccc3ccccc23)CC1` [Compound 17, methyl (R,E)-4-(2-(2-(N-(1-(1-(naphthalen-1-yl)ethyl)piperidin-4-yl)isobutyramido)acetamido)acetamido)but-2-enoate] was run?
Answer: 100 to 1000 nM

Question: For `C#CCNC(=O)CNC(=O)CN(C1CCN(C(C)c2ccccc2F)CC1)S(C)(=O)=O` (centres unmarked) [Compound 129, 2-(N-(1-(1-(2-fluorophenyl)ethyl)piperidin-4-yl)methylsulfonamido)-N-(2-oxo-2-(prop-2-yn-1-ylamino)ethyl)acetamide], which IC50 (SARS-CoV-2 PLpro) is on record?
Answer: 100 to 1000 nM

Question: With `C=CC(=O)NNC(=O)CN(C1CCN(C(C)c2cccc3ccccc23)CC1)S(C)(=O)=O` (centres unmarked) [Compound 168, N-(2-(2-acryloylhydrazineyl)-2-oxoethyl)-N-(1-(1-(naphthalen-1-yl)ethyl)piperidin-4-yl)methanesulfonamide] as the molecule, how does the IC50 (SARS-CoV-2 PLpro) read?
Answer: 1000 to 10000 nM

Question: How did the IC50 (SARS-CoV-2 PLpro) turn out when `C#CCNC(=O)CNC(=O)CN(C1CCN(C(C)c2cccc(C)c2C)CC1)S(C)(=O)=O` (centres unmarked) [Compound 99, 2-(N-(1-(1-(2,3-dimethylphenyl)ethyl)piperidin-4-yl)methylsulfonamido)-N-(2-oxo-2-(prop-2-yn-1-ylamino)ethyl)acetamide] was run?
Answer: < 100 nM

Question: With `C[C@H](c1cccc2ccccc12)N1CCC(N(CC(=O)NCC(=O)NCC=O)S(C)(=O)=O)CC1` [Compound 64, (R)-2-(N-(1-(1-(naphthalen-1-yl)ethyl)piperidin-4-yl)methylsulfonamido)-N-(2-oxo-2-((2-oxoethyl)amino)ethyl)acetamide] as the molecule, how does the IC50 (SARS-CoV-2 PLpro) read?
Answer: < 100 nM

Question: Which IC50 (SARS-CoV-2 PLpro) does the source give for `C#CCNC(=O)CNC(=O)CN(C1CCN(C(C)c2ccc3ccccc3c2)CC1)S(C)(=O)=O` (centres unmarked) [Compound 110, 2-(N-(1-(1-(naphthalen-2-yl)ethyl)piperidin-4-yl)methylsulfonamido)-N-(2-oxo-2-(prop-2-yn-1-ylamino)ethyl)acetamide] here?
Answer: < 100 nM

Question: `C#CCCNC(=O)CNC(=O)CN(C1CCN([C@H](C)c2cccc3ccccc23)CC1)S(C)(=O)=O` [Compound 127, (R)—N-(but-3-yn-1-yl)-2-(2-(N-(1-(1-(naphthalen-1-yl)ethyl)piperidin-4-yl)methylsulfonamido)acetamido)acetamide] was tested. Which IC50 (SARS-CoV-2 PLpro) did it give?
Answer: 100 to 1000 nM

Question: Which IC50 (SARS-CoV-2 PLpro) does the source give for `COC(=O)/C=C/CNC(=O)CNC(=O)CN(C(=O)Cc1cccc(F)c1)C1CCN([C@H](C)c2cccc3ccccc23)CC1` [Compound 3, methyl (R,E)-4-(2-(2-(2-(3-fluorophenyl)-N-(1-(1-(naphthalen-1-yl)ethyl)piperidin-4-yl)acetamido)acetamido)acetamido)but-2-enoate] here?
Answer: 100 to 1000 nM
